Data: patent US8927500B2, “Peptidomimetic macrocycles” (Aileron Therapeutics, Inc., priority 2012, dated 2015)
Where a SMILES comes first, the peptide text is derived from it. Bridges are numbered along the chain shown (N, C = ends). [ ]: non-standard residue; d: D form. Phe(4-COOH) = N[C@@H](Cc1ccc(C(=O)O)cc1)C(=O)O; R8 = C=CCCCCCC[C@@](C)(N)C(=O)O; Cba = N[C@@H](CC1CCC1)C(=O)O; S5 = C=CCCC[C@](C)(N)C(=O)O; Nle = CCCC[C@H](N)C(=O)O

Key:
[1] = Circular dichroism (CD) analysis of alpha-helicity; assay type: physicochemical; conditions: for Molar Ellipticity 50% TFE (222 in 50% TFE): CD buffer with 50% TFE; for Molar Ellipticity 50% TFE (222 in 50% TFE) / Molar Ellipticity Benign (222 in 0% TFE): 222 nm, 4° C.; for Molar Ellipticity Benign (222 in 0% TFE): benign CD buffer pH 2, 0% TFE; for % Helix benign compared to 50% TFE parent (CD): benign buffer; for Molar Ellipticity TFE-Molar Ellipticity Benign: difference 50% TFE minus benign
Method: To assay the helicity of peptidomimetic macrocycles, the compounds are dissolved in an aqueous solution (e.g. 50 mM potassium phosphate solution at pH 7, or distilled H2O, to concentrations of 25-50 μM). Circular dichroism (CD) spectra are obtained on a spectropolarimeter (e.g., Jasco J-710) using standard measurement parameters (e.g. temperature, 20° C.; wavelength, 190-260 nm; step resolution, 0.5 nm; speed, 20 nm/sec; accumulations, 10; response, 1 sec; bandwidth, 1 nm; path length, 0.1 cm). […] A Peltier temperature controller was used to maintain temperature control of the optical cell. Results are expressed as mean molar ellipticity [0] […] Peptide concentrations were determined by amino acid analysis. Stock solutions of peptides were prepared in benign CD buffer (20 mM phosphoric acid, pH 2). The stocks were used to prepare peptide solutions of 0.05 mg/ml in either benign CD buffer or CD buffer with 50% trifluoroethanol (TFE) for analyses in a 10 mm pathlength cell. […] The average of six scans was reported.

Caspase 3 = Caspase 3 detection assay in SJSA1 cells; assay type: cell-based; conditions: 48 h, Caspase 3 activation over DMSO-treated cells; for caspase 0.3 uM: 0.3 uM peptide; for caspase 3 uM: 3 uM peptide; for caspase 10 uM: 10 uM peptide; for caspase 30 uM: 30 uM peptide; for caspase 1 uM: 1 uM peptide
MDM2 = MDM2 (Homo sapiens, UniProt Q00987); assay: Competitive fluorescence polarization assay for MDM2; assay type: binding; conditions: competitive FP assay, MDM2; for IC50: read-out: IC50 (MDM2); for Ki: read-out: Ki (MDM2)
Sequence of MDM2 (Q00987 1-125): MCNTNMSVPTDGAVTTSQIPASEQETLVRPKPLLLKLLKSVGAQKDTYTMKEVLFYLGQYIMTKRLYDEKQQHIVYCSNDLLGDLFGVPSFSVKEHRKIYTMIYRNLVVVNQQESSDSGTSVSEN

SJSA-1 cells = assay: Cell lysis by peptidomimetic macrocycles (LDH release); assay type: cell-based; conditions: 1 h at 37C
MDMX = target: T1, MDMX (Homo sapiens, UniProt O15151); assay: Competitive fluorescence polarization assay for MDMX; assay type: binding; conditions: competitive FP assay; for IC50: read-out: IC50 (MDMX); for Ki: read-out: Ki (MDMX)
T1 sequence (O15151 1-125): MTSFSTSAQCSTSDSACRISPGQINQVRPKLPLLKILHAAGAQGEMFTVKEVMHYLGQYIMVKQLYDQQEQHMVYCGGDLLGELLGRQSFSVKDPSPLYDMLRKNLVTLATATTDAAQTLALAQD

Row | Compound | % Helix 50% TFE compared to 50% TFE parent (CD) [1] [%] | Molar Ellipticity 50% TFE (222 in 50% TFE) [1] [deg cm2 dmol-1] | Molar Ellipticity Benign (222 in 0% TFE) [1] [deg cm2 dmol-1] | % Helix benign compared to 50% TFE parent (CD) [1] [%] | Molar Ellipticity TFE-Molar Ellipticity Benign [1] [deg cm2 dmol-1] | caspase 0.3 uM (Caspase 3) | caspase 3 uM (Caspase 3) | caspase 10 uM (Caspase 3) | caspase 30 uM (Caspase 3) | IC50 (MDM2) [nM] | Ki (MDM2) [nM] | 6.25 uM % Lysed cells (1 h LDH) (SJSA-1 cells) [%] | 25 uM % Lysed cells (1 h LDH) (SJSA-1 cells) [%] | 50 uM % Lysed cells (1 h LDH) (SJSA-1 cells) [%] | IC50 (MDMX) [nM] | Ki (MDMX) [nM] | caspase 1 uM (Caspase 3)
1 | CC(=O)N[C@@H](CC(C)C)C(=O)N[C@H](C(=O)N[C@@H](Cc1ccccc1)C(=O)N[C@]1(C)CCCCCCC=CCCC[C@@](C)(C(=O)N[C@@H](C)C(=O)N[C@@H](C)C(=O)N[C@@H](C)C(=O)N[C@H](C)C(N)=O)NC(=O)[C@H](CC(C)C)NC(=O)[C@H](CCC(N)=O)NC(=O)[C@H](C)NC(=O)[C@H](Cc2c[nH]c3ccccc23)NC(=O)[C@H](Cc2ccc(O)cc2)NC(=O)[C@H](C)NC1=O)[C@@H](C)O (single isomer, unassigned) [compound 230] | 123.9 | −17974 | −213.2 | 1.5 | −17760.8 | 1 | 2 | 3 | 11 | < 10 | < 10 | 0.5 | 0 | 3 | 10 to 100 | < 10 | 
2 | CC(=O)N[C@@H](CC(C)C)C(=O)N[C@H](C(=O)N[C@@H](Cc1ccccc1)C(=O)N[C@]1(C)CCCCCCC=CCCC[C@@](C)(C(=O)N[C@@H](CO)C(=O)N[C@@H](C)C(=O)N[C@@H](C)C(N)=O)NC(=O)[C@H](CC(C)C)NC(=O)[C@H](CCC(N)=O)NC(=O)[C@H](C)NC(=O)[C@H](Cc2c[nH]c3ccccc23)NC(=O)[C@H](Cc2ccc(O)cc2)NC(=O)[C@H](C)NC1=O)[C@@H](C)O [compound 11] | 106.1 | −16623.4 | −398.2 | 2.5 |  | 1 | 5 | 23 | 33.5 |  |  | −2 | 2 | 3 |  |  | 
3 | CCCC[C@H](NC(=O)[C@H](CCC(N)=O)NC(=O)[C@H](CCC(N)=O)NC(=O)[C@]1(C)CCCC=CCCCCCC[C@@](C)(NC(=O)[C@H](Cc2ccccc2)NC(C)=O)C(=O)N[C@@H](C)C(=O)N[C@@H](Cc2ccc(O)cc2)C(=O)N[C@@H](Cc2c[nH]c3ccccc23)C(=O)N[C@@H]([C@@H](C)O)C(=O)N[C@@H](C)C(=O)N[C@@H](CC(C)C)C(=O)N1)C(=O)N[C@@H](C(N)=O)C(C)C [compound 41] (Ac-F[R8]AYWTAL[S5]QQ[Nle][dV]-NH2; staple 2-9) | 136 | −21319.4 | −909 | 5.8 | 20410.4 |  |  |  |  | 100 to 1000 | 10 to 100 |  |  |  | 10 to 100 | 10 to 100 | 
4 | CC(=O)N[C@@H](CC(C)C)C(=O)N[C@H](C(=O)N[C@@H](Cc1ccccc1)C(=O)N[C@]1(C)CCCCCCC=CCCC[C@@](C)(C(=O)N[C@@H](Cc2c[nH]cn2)C(=O)N[C@@H](Cc2c[nH]cn2)C(=O)N[C@@H](CC(C)C)C(=O)N[C@H](C)C(N)=O)NC(=O)[C@H](CC(C)C)NC(=O)[C@H](CCC(N)=O)NC(=O)[C@H](C)NC(=O)[C@H](Cc2c[nH]c3ccccc23)NC(=O)[C@H](Cc2ccc(O)cc2)NC(=O)[C@H](C)NC1=O)[C@@H](C)O [compound 43] (Ac-LTF[R8]AYWAQL[S5]HHL[dA]-NH2; staple 4-11) | 116.4 | −18247.4 | −15334.5 | 97.8 | 2912.9 |  |  |  |  | 10 to 100 | < 10 | 0 | −1 | −1 | 10 to 100 | 10 to 100 | 
5 | CC(=O)N[C@@H](CC(C)C)C(=O)N[C@H](C(=O)N[C@@H](Cc1ccccc1)C(=O)N[C@]1(C)CCCCCCC=CCCC[C@@](C)(C(=O)N[C@@H](C)C(=O)N[C@@H](C)C(=O)N[C@@H](C)C(=O)N[C@@H](C)C(=O)N[C@H](C)C(N)=O)NC(=O)[C@H](CC(C)C)NC(=O)[C@H](CCC(N)=O)NC(=O)[C@H](C)NC(=O)[C@H](Cc2c[nH]c3ccccc23)NC(=O)[C@H](Cc2ccc(O)cc2)NC(=O)[C@H](C)NC1=O)[C@@H](C)O [compound 233] | 131.2 | −19032.6 | −477.9 | 3.3 | −18554.7 | 6 | 17 | 22 | 23 |  |  | 2.5 | 3.5 | 6 |  |  | 8
6 | CC[C@H](C)[C@H](NC(=O)[C@H](C)NC(=O)[C@H](C)NC(=O)[C@]1(C)CCCC=CCCCCCC[C@@](C)(NC(=O)[C@H](Cc2ccccc2)NC(=O)[C@@H](NC(=O)[C@H](CC(C)C)NC(C)=O)[C@@H](C)O)C(=O)N[C@@H](CCC(=O)O)C(=O)N[C@@H](Cc2ccc(O)cc2)C(=O)N[C@@H](Cc2c[nH]c3ccccc23)C(=O)N[C@@H](C)C(=O)N[C@@H](CCC(N)=O)C(=O)N[C@@H](CC2CCC2)C(=O)N1)C(=O)N[C@H](C)C(N)=O [compound 247] (Ac-LTF[R8]EYWAQ[Cba][S5]AAI[dA]-NH2; staple 4-11) |  |  |  |  |  | 1 | 3 | 11 | 24 | 10 to 100 | < 10 | 0 | 0 | 4 | 10 to 100 | 10 to 100 | 
7 | CC[C@H](C)[C@H](NC(=O)[C@H](C)NC(=O)[C@H](C)NC(=O)[C@]1(C)CCC/C=C/CCCCCC[C@@](C)(NC(=O)[C@H](Cc2ccccc2)NC(=O)[C@@H](NC(=O)[C@H](CC(C)C)NC(C)=O)[C@@H](C)O)C(=O)N[C@@H](CCC(=O)O)C(=O)N[C@@H](Cc2ccc(C(=O)O)cc2)C(=O)N[C@@H](Cc2c[nH]c3ccccc23)C(=O)N[C@@H](C)C(=O)N[C@@H](CCC(N)=O)C(=O)N[C@@H](CC2CCC2)C(=O)N1)C(=O)N[C@H](C)C(N)=O [compound 249] (Ac-LTF[R8]E[Phe(4-COOH)]WAQ[Cba][S5]AAI[dA]-NH2; staple (E) 4-11) |  |  |  |  |  | 2 | 5 | 11 | 23 | 10 to 100 | < 10 | 0 | 0 | 0 | 10 to 100 | < 10 | 
8 | CC(=O)N[C@@H](CC(C)C)C(=O)N[C@H](C(=O)N[C@@H](Cc1ccccc1)C(=O)N[C@]1(C)CCCCCC/C=C/CCC[C@@](C)(C(=O)N[C@@H](C)C(=O)N[C@@H](C)C(=O)N[C@@H](C)C(=O)N[C@@H](C)C(=O)N[C@@H](C)C(=O)N[C@H](C)C(N)=O)NC(=O)[C@H](CC2CCC2)NC(=O)[C@H](CCC(N)=O)NC(=O)[C@H](C)NC(=O)[C@H](Cc2c[nH]c3ccccc23)NC(=O)[C@H](Cc2ccc(C(=O)O)cc2)NC(=O)[C@H](CCC(=O)O)NC1=O)[C@@H](C)O [compound 349] (Ac-LTF[R8]E[Phe(4-COOH)]WAQ[Cba][S5]AAAAA[dA]-NH2; staple (E) 4-11) |  |  |  |  |  | 1 | 11 | 16 | 24 | < 10 | < 10 | 0 | 0 | 0 | 10 to 100 | < 10 | 8
9 | CC(=O)N[C@@H](CC(C)C)C(=O)N[C@H](C(=O)N[C@@H](Cc1ccccc1)C(=O)N[C@]1(C)CCCCCC/C=C/CCC[C@@](C)(C(=O)N[C@@H](C)C(=O)N[C@@H](C)C(=O)N[C@@H](C)C(=O)N[C@@H](C)C(=O)N[C@@H](C)C(=O)N[C@H](C)C(N)=O)NC(=O)[C@H](CC2CCC2)NC(=O)[C@H](CCC(N)=O)NC(=O)[C@H](CO)NC(=O)[C@H](Cc2c[nH]c3ccccc23)NC(=O)[C@H](Cc2ccc(O)cc2)NC(=O)[C@H](CCC(=O)O)NC1=O)[C@@H](C)O [compound 351] (Ac-LTF[R8]EYWSQ[Cba][S5]AAAAA[dA]-NH2; staple (E) 4-11) |  |  |  |  |  | 3 | 13 | 15 | 24 | < 10 | < 10 | 0 | 0 | 0 | 10 to 100 | < 10 | 9
